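Dose response: 5 concentrations. Exposure: 48 h. Format: 96-well plates. Endpoint: linear interpolation; highest concentration if not reached. The concentration for 50% growth inhibition is given as GI50. TGI marks complete inhibition of growth.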
What was measured:
Assay in all cases: inhibition of tumour cell growth, NCI panel, 48 h
SK-MEL-5 melanoma = test system: SK-MEL-5 melanoma
UACC-62 melanoma = test system: UACC-62 melanoma
SK-OV-3 ovarian = test system: SK-OV-3 ovarian
SF-295 CNS = test system: SF-295 CNS
HS 578T breast = test system: HS 578T breast
COLO 205 colon = test system: COLO 205 colon
SK-MEL-2 melanoma = test system: SK-MEL-2 melanoma
SW-620 colon = test system: SW-620 colon
RXF 393 renal = test system: RXF 393 renal
SNB-75 CNS = test system: SNB-75 CNS

SMILES | GI50 (SK-MEL-5 melanoma) | TGI (SK-MEL-5 melanoma) | GI50 (UACC-62 melanoma) | TGI (UACC-62 melanoma) | GI50 (SK-OV-3 ovarian) | TGI (SK-OV-3 ovarian) | GI50 (SF-295 CNS) | TGI (SF-295 CNS) | GI50 (HS 578T breast) | TGI (HS 578T breast) | GI50 (COLO 205 colon) | TGI (COLO 205 colon) | GI50 (SK-MEL-2 melanoma) | TGI (SK-MEL-2 melanoma) | GI50 (SW-620 colon) | TGI (SW-620 colon) | GI50 (RXF 393 renal) | TGI (RXF 393 renal) | GI50 (SNB-75 CNS) | TGI (SNB-75 CNS)
COc1cccc(/C(C)=N/NC(=O)CSc2nc3ccccc3c(=O)n2CCc2ccc(S(N)(=O)=O)cc2)c1 | 2030 nM | 4.24 µM | 8320 nM | 33.5 µM | 2.26 µM | 4.88 µM | 4.02 µM | 16.3 µM | 3540 nM | 15.9 µM | 4.13 µM | 21.1 µM | 3.42 µM | 16.3 µM | 2.77 µM | 7.5 µM | 2710 nM | 7.7 µM | 5860 nM | 26.9 µM
NC(=Nc1ccc(N)cc1)C(N)=Nc1ccc(N)cc1 | > 100000 nM | > 100 µM | > 100000 nM | > 100 µM | > 100 µM | > 100 µM | > 100 µM | > 100 µM | > 100000 nM | > 100 µM | 43.5 µM | > 100 µM | > 100 µM | > 100 µM | 64.1 µM | > 100 µM | > 100000 nM | > 100 µM | > 100000 nM | > 100 µM
O=c1oc2ccc(-c3ccc(F)cc3F)cc2c(=O)n1-c1ccc(Cl)c(C(F)(F)F)c1 | 1600 nM | 3.05 µM | 1550 nM | 4.15 µM | 2.01 µM | 5.17 µM | 1.81 µM | 3.62 µM | 2420 nM | 8.16 µM | 2.89 µM | 8.54 µM | 1.99 µM | 4.76 µM | 3.16 µM | 11.7 µM | 1700 nM | 4.59 µM | 1700 nM | 4.2 µM
O=C(C[P+](c1ccccc1)(c1ccccc1)c1ccccc1)C[P+](c1ccccc1)(c1ccccc1)c1ccccc1 | 625 nM | 1.8 µM | 256 nM | 0.865 µM | 1.49 µM | 3.17 µM | 1.46 µM | 2.98 µM | 581 nM | 4.5 µM | 0.398 µM | 1.51 µM | 0.341 µM | 1.04 µM | 0.242 µM | 0.816 µM | 200 nM | 0.605 µM | 254 nM | 1.44 µM
Cn1c(=S)c2[nH]c(SCCN3C(=O)c4ccccc4C3=O)nc2n(C)c1=O |  | > 100 µM |  | > 100 µM |  | > 100 µM |  | > 100 µM |  | > 100 µM |  | > 100 µM |  | > 100 µM |  | > 100 µM |  | > 100 µM |  | > 100 µM
NC(=S)N=Nc1c(O)c2ccccc2c2ccccc12 | 1410 nM | 2.9 µM | 1690 nM | 3.19 µM | 21.5 µM | 54.2 µM | 3.01 µM | 10.2 µM | 2170 nM | 7.96 µM | 22.8 µM | 73.6 µM | 14.9 µM | 33.8 µM | 3.44 µM | 26.6 µM | 18700 nM | 44.7 µM | 1340 nM | 3.24 µM
CC(=O)c1cc(C(=O)c2ccc3c(c2)Sc2ccccc2N3)c2c(C)cccn12 | 259 nM | 4.56 µM | 145 nM | 38.1 µM | 0.266 µM | 10.5 µM | 0.188 µM | 15.8 µM | 266 nM | > 36.3 µM | 0.187 µM | 0.426 µM | 0.3 µM | > 66.2 µM | 0.265 µM | > 100 µM | 252 nM | 2.37 µM | 178 nM | 1.04 µM
O=C1c2ccccc2C(=O)c2c(NCC3CO3)ccc(NCC3CO3)c21 (stereo not drawn) |  | 6.44 µM |  |  |  | > 47 µM |  | 23.7 µM |  | 15.3 µM |  | 29.9 µM |  |  |  | 6.04 µM |  | 11.8 µM |  | > 100 µM
COc1ccc(C2C=C(c3ccc(Cl)cc3)N=C3SC=C(C)N32)c(Br)c1 (stereo not drawn) | 2800 nM | 11.2 µM | 3800 nM | 15.7 µM | 3.57 µM | 12.6 µM |  |  | 2190 nM | 7.5 µM | 3.54 µM | 10.3 µM | 4.79 µM | 18.1 µM | 2.85 µM | 10.3 µM | 2390 nM | 9.59 µM | 3770 nM | 16.7 µM
CC1=C(C)C2(O)C(=C(C)C1=O)/C(=C(/O)c1ccccc1)c1nc3ccccc3n12 (stereo not drawn) | 16600 nM | 31.3 µM |  |  | 18.2 µM | 42.2 µM | 15.5 µM | 33.2 µM | 29300 nM | 94.6 µM | 17.2 µM | 31.3 µM | 19.4 µM | 40 µM | 29.4 µM | > 100 µM | 15300 nM | 34.5 µM | 11700 nM | 32.1 µM
C#COc1cccc(Nc2ncnc3cc(NC(=O)[C@H](C)Cl)ccc23)c1 | 1390 nM | 3.54 µM | 2960 nM | > 62.5 µM | 13 µM | > 62.5 µM | 2.28 µM | 61.1 µM | 2510 nM | > 62.5 µM | 3.86 µM | > 62.5 µM |  |  | 2.58 µM | > 62.5 µM | 3340 nM | 39.3 µM | 2600 nM | > 62.5 µM
CC12CCC3c4cc(Br)c(O)c(Br)c4CCC3C1CCC2O (stereo not drawn) |  |  |  | 33.1 µM |  | 51.4 µM |  | 33.4 µM |  | 49.4 µM |  | 70.1 µM |  | 59.4 µM |  | 33 µM |  | 40.5 µM |  | 37.5 µM
COc1ccc(N(/C=C/C(=O)C(F)(F)F)CC(=O)c2ccc(Cl)cc2)cc1 | 15000 nM | 29.5 µM | 8340 nM | 20.7 µM | 19.2 µM | 36.4 µM | 13.6 µM | 31.7 µM | 25000 nM | 67.3 µM | 18.6 µM | 40.7 µM | 15.4 µM | 31.8 µM | 19.2 µM | 41 µM | 16300 nM | 48.5 µM |  | 
Cc1ccc(NC(=O)/C(=N/N(C)C)C(C2OC(=O)c3ccccc32)[N+](=O)[O-])cc1 (stereo not drawn) |  | > 100 µM |  | > 100 µM |  | > 100 µM |  | > 100 µM |  | > 100 µM |  |  |  | > 100 µM |  | > 100 µM |  | > 100 µM |  | > 100 µM
